Results as given in ChEMBL document CHEMBL5303573, “Mapping human microbiome drug metabolism by gut bacteria and their genes” (Nature, 2019).

Experiment: The drug is tested on Bacteroides sp. WH2 strain: WH2 for biotransformation. The drug concentrations were measured before and after a 12-h incubation by liquid-chromatography-coupled mass spectrometry (LC–MS)
Details: bacteroides sp. wh2, 12 h, 2 µM

Bacterial Biotransformation, Compound metabolized:
COc1ccc2[nH]c([S+]([O-])Cc3ncc(C)c(OC)c3C)nc2c1 (stereo not given) [OMEPRAZOLE]
CCOC(=O)C1=C(C)NC(C)=C(C(=O)OC)C1c1cccc([N+](=O)[O-])c1 (stereo not given) [NITRENDIPINE]
C#C[C@]1(O)CC[C@H]2[C@@H]3CCC4=Cc5oncc5C[C@]4(C)[C@H]3CC[C@@]21C [DANAZOL]

Details: roseburia intestinalis, 12 h, 2 µM
Description: The drug is tested on Roseburia intestinalis strain: L1-82 for biotransformation. The drug concentrations were measured before and after a 12-h incubation by liquid-chromatography-coupled mass spectrometry (LC–MS)

Bacterial Biotransformation, Compound metabolized:
COc1ccc2[nH]c([S+]([O-])Cc3ncc(C)c(OC)c3C)nc2c1 (stereo not given) [OMEPRAZOLE]
CCOC(=O)C1=C(C)NC(C)=C(C(=O)OC)C1c1cccc([N+](=O)[O-])c1 (stereo not given) [NITRENDIPINE]
C#C[C@]1(O)CC[C@H]2[C@@H]3CCC4=Cc5oncc5C[C@]4(C)[C@H]3CC[C@@]21C [DANAZOL]

Experiment: The drug is tested on Bacteroides fragilis strain: HMW610 for biotransformation. The drug concentrations were measured before and after a 12-h incubation by liquid-chromatography-coupled mass spectrometry (LC–MS)
Details: 2 µM

Bacterial Biotransformation, Compound metabolized:
COc1ccc2[nH]c([S+]([O-])Cc3ncc(C)c(OC)c3C)nc2c1 (stereo not given) [OMEPRAZOLE]
CCOC(=O)C1=C(C)NC(C)=C(C(=O)OC)C1c1cccc([N+](=O)[O-])c1 (stereo not given) [NITRENDIPINE]
C#C[C@]1(O)CC[C@H]2[C@@H]3CCC4=Cc5oncc5C[C@]4(C)[C@H]3CC[C@@]21C [DANAZOL]

Experiment: The drug is tested on Clostridium asparagiforme strain: DSM15981 for biotransformation. The drug concentrations were measured before and after a 12-h incubation by liquid-chromatography-coupled mass spectrometry (LC–MS)
Format: ADME
Parameters: dose 2 uM, timepoint 0 vs 12 hours
Details: enterocloster asparagiformis, 2 µM

Bacterial Biotransformation, Compound metabolized:
COc1ccc2[nH]c([S+]([O-])Cc3ncc(C)c(OC)c3C)nc2c1 (stereo not given) [OMEPRAZOLE]
CCOC(=O)C1=C(C)NC(C)=C(C(=O)OC)C1c1cccc([N+](=O)[O-])c1 (stereo not given) [NITRENDIPINE]
C#C[C@]1(O)CC[C@H]2[C@@H]3CCC4=Cc5oncc5C[C@]4(C)[C@H]3CC[C@@]21C [DANAZOL]

Experiment: The drug is tested on Subdoligranulum variabile strain: DSM15176 for biotransformation. The drug concentrations were measured before and after a 12-h incubation by liquid-chromatography-coupled mass spectrometry (LC–MS)
Details: 2 µM

Bacterial Biotransformation, Compound metabolized:
COc1ccc2[nH]c([S+]([O-])Cc3ncc(C)c(OC)c3C)nc2c1 (stereo not given) [OMEPRAZOLE]
CCOC(=O)C1=C(C)NC(C)=C(C(=O)OC)C1c1cccc([N+](=O)[O-])c1 (stereo not given) [NITRENDIPINE]
C#C[C@]1(O)CC[C@H]2[C@@H]3CCC4=Cc5oncc5C[C@]4(C)[C@H]3CC[C@@]21C [DANAZOL]

Experiment: The drug is tested on Dorea formicigenerans strain: ATCC27755 for biotransformation. The drug concentrations were measured before and after a 12-h incubation by liquid-chromatography-coupled mass spectrometry (LC–MS)
Details: 2 µM

Bacterial Biotransformation, Compound metabolized:
COc1ccc2[nH]c([S+]([O-])Cc3ncc(C)c(OC)c3C)nc2c1 (stereo not given) [OMEPRAZOLE]
CCOC(=O)C1=C(C)NC(C)=C(C(=O)OC)C1c1cccc([N+](=O)[O-])c1 (stereo not given) [NITRENDIPINE]
C#C[C@]1(O)CC[C@H]2[C@@H]3CCC4=Cc5oncc5C[C@]4(C)[C@H]3CC[C@@]21C [DANAZOL]

Experiment: The drug is tested on Bacteroides cellulosilyticus strain: DSM14838 for biotransformation. The drug concentrations were measured before and after a 12-h incubation by liquid-chromatography-coupled mass spectrometry (LC–MS)
Details: 2 µM

Bacterial Biotransformation, Compound metabolized:
COc1ccc2[nH]c([S+]([O-])Cc3ncc(C)c(OC)c3C)nc2c1 (stereo not given) [OMEPRAZOLE]
CCOC(=O)C1=C(C)NC(C)=C(C(=O)OC)C1c1cccc([N+](=O)[O-])c1 (stereo not given) [NITRENDIPINE]
C#C[C@]1(O)CC[C@H]2[C@@H]3CCC4=Cc5oncc5C[C@]4(C)[C@H]3CC[C@@]21C [DANAZOL]

Experiment: The drug is tested on Blautia hansenii strain: DSM20583 for biotransformation. The drug concentrations were measured before and after a 12-h incubation by liquid-chromatography-coupled mass spectrometry (LC–MS)
Details: 2 µM

Bacterial Biotransformation, Compound metabolized:
COc1ccc2[nH]c([S+]([O-])Cc3ncc(C)c(OC)c3C)nc2c1 (stereo not given) [OMEPRAZOLE]
CCOC(=O)C1=C(C)NC(C)=C(C(=O)OC)C1c1cccc([N+](=O)[O-])c1 (stereo not given) [NITRENDIPINE]
C#C[C@]1(O)CC[C@H]2[C@@H]3CCC4=Cc5oncc5C[C@]4(C)[C@H]3CC[C@@]21C [DANAZOL]

Experiment: The drug is tested on Escherichia coli strain: BW25113 for biotransformation. The drug concentrations were measured before and after a 12-h incubation by liquid-chromatography-coupled mass spectrometry (LC–MS)
Details: 2 µM

Bacterial Biotransformation, Compound metabolized:
COc1ccc2[nH]c([S+]([O-])Cc3ncc(C)c(OC)c3C)nc2c1 (stereo not given) [OMEPRAZOLE]
CCOC(=O)C1=C(C)NC(C)=C(C(=O)OC)C1c1cccc([N+](=O)[O-])c1 (stereo not given) [NITRENDIPINE]
C#C[C@]1(O)CC[C@H]2[C@@H]3CCC4=Cc5oncc5C[C@]4(C)[C@H]3CC[C@@]21C [DANAZOL]

Details: bacteroides thetaiotaomicron, 12 h, 2 µM
Description: The drug is tested on Bacteroides thetaiotaomicron strain: 7330 for biotransformation. The drug concentrations were measured before and after a 12-h incubation by liquid-chromatography-coupled mass spectrometry (LC–MS)

Bacterial Biotransformation, Compound metabolized:
COc1ccc2[nH]c([S+]([O-])Cc3ncc(C)c(OC)c3C)nc2c1 (stereo not given) [OMEPRAZOLE]
CCOC(=O)C1=C(C)NC(C)=C(C(=O)OC)C1c1cccc([N+](=O)[O-])c1 (stereo not given) [NITRENDIPINE]
C#C[C@]1(O)CC[C@H]2[C@@H]3CCC4=Cc5oncc5C[C@]4(C)[C@H]3CC[C@@]21C [DANAZOL]

Details: bacteroides eggerthii, 12 h, 2 µM
Description: The drug is tested on Bacteroides eggerthii strain: DSM20697 for biotransformation. The drug concentrations were measured before and after a 12-h incubation by liquid-chromatography-coupled mass spectrometry (LC–MS)

Bacterial Biotransformation, Compound metabolized:
COc1ccc2[nH]c([S+]([O-])Cc3ncc(C)c(OC)c3C)nc2c1 (stereo not given) [OMEPRAZOLE]
CCOC(=O)C1=C(C)NC(C)=C(C(=O)OC)C1c1cccc([N+](=O)[O-])c1 (stereo not given) [NITRENDIPINE]
C#C[C@]1(O)CC[C@H]2[C@@H]3CCC4=Cc5oncc5C[C@]4(C)[C@H]3CC[C@@]21C [DANAZOL]

Experiment: The drug is tested on Eubacterium ventriosum strain: ATCC27560 for biotransformation. The drug concentrations were measured before and after a 12-h incubation by liquid-chromatography-coupled mass spectrometry (LC–MS)
Format: ADME
Parameters: dose 2 uM, timepoint 0 vs 12 hours
Details: 2 µM

Bacterial Biotransformation, Compound metabolized:
COc1ccc2[nH]c([S+]([O-])Cc3ncc(C)c(OC)c3C)nc2c1 (stereo not given) [OMEPRAZOLE]
CCOC(=O)C1=C(C)NC(C)=C(C(=O)OC)C1c1cccc([N+](=O)[O-])c1 (stereo not given) [NITRENDIPINE]
C#C[C@]1(O)CC[C@H]2[C@@H]3CCC4=Cc5oncc5C[C@]4(C)[C@H]3CC[C@@]21C [DANAZOL]

Details: victivallis vadensis, 12 h, 2 µM
Description: The drug is tested on Victivallis vadensis strain: ATCC BAA-548 for biotransformation. The drug concentrations were measured before and after a 12-h incubation by liquid-chromatography-coupled mass spectrometry (LC–MS)

Bacterial Biotransformation, Compound metabolized:
COc1ccc2[nH]c([S+]([O-])Cc3ncc(C)c(OC)c3C)nc2c1 (stereo not given) [OMEPRAZOLE]
CCOC(=O)C1=C(C)NC(C)=C(C(=O)OC)C1c1cccc([N+](=O)[O-])c1 (stereo not given) [NITRENDIPINE]
C#C[C@]1(O)CC[C@H]2[C@@H]3CCC4=Cc5oncc5C[C@]4(C)[C@H]3CC[C@@]21C [DANAZOL]

Experiment: The drug is tested on Collinsella intestinalis strain: DSM13280 for biotransformation. The drug concentrations were measured before and after a 12-h incubation by liquid-chromatography-coupled mass spectrometry (LC–MS)
Details: 2 µM

Bacterial Biotransformation, Compound metabolized:
COc1ccc2[nH]c([S+]([O-])Cc3ncc(C)c(OC)c3C)nc2c1 (stereo not given) [OMEPRAZOLE]
CCOC(=O)C1=C(C)NC(C)=C(C(=O)OC)C1c1cccc([N+](=O)[O-])c1 (stereo not given) [NITRENDIPINE]
C#C[C@]1(O)CC[C@H]2[C@@H]3CCC4=Cc5oncc5C[C@]4(C)[C@H]3CC[C@@]21C [DANAZOL]

Details: segatella copri, 12 h, 2 µM
Description: The drug is tested on Prevotella copri strain: DSM18205 for biotransformation. The drug concentrations were measured before and after a 12-h incubation by liquid-chromatography-coupled mass spectrometry (LC–MS)

Bacterial Biotransformation, Compound metabolized:
COc1ccc2[nH]c([S+]([O-])Cc3ncc(C)c(OC)c3C)nc2c1 (stereo not given) [OMEPRAZOLE]
CCOC(=O)C1=C(C)NC(C)=C(C(=O)OC)C1c1cccc([N+](=O)[O-])c1 (stereo not given) [NITRENDIPINE]
C#C[C@]1(O)CC[C@H]2[C@@H]3CCC4=Cc5oncc5C[C@]4(C)[C@H]3CC[C@@]21C [DANAZOL]

Details: bacteroides thetaiotaomicron, 12 h, 2 µM
Remark: another data set of the same source
Description: The drug is tested on Bacteroides thetaiotaomicron strain: VPI-5482 for biotransformation. The drug concentrations were measured before and after a 12-h incubation by liquid-chromatography-coupled mass spectrometry (LC–MS)

Bacterial Biotransformation, Compound metabolized:
COc1ccc2[nH]c([S+]([O-])Cc3ncc(C)c(OC)c3C)nc2c1 (stereo not given) [OMEPRAZOLE]
CCOC(=O)C1=C(C)NC(C)=C(C(=O)OC)C1c1cccc([N+](=O)[O-])c1 (stereo not given) [NITRENDIPINE]
C#C[C@]1(O)CC[C@H]2[C@@H]3CCC4=Cc5oncc5C[C@]4(C)[C@H]3CC[C@@]21C [DANAZOL]

Experiment: The drug is tested on Blautia luti strain: DSM14534 for biotransformation. The drug concentrations were measured before and after a 12-h incubation by liquid-chromatography-coupled mass spectrometry (LC–MS)
Format: ADME
Parameters: dose 2 uM, timepoint 0 vs 12 hours
Details: 2 µM

Bacterial Biotransformation, Compound metabolized:
COc1ccc2[nH]c([S+]([O-])Cc3ncc(C)c(OC)c3C)nc2c1 (stereo not given) [OMEPRAZOLE]
CCOC(=O)C1=C(C)NC(C)=C(C(=O)OC)C1c1cccc([N+](=O)[O-])c1 (stereo not given) [NITRENDIPINE]
C#C[C@]1(O)CC[C@H]2[C@@H]3CCC4=Cc5oncc5C[C@]4(C)[C@H]3CC[C@@]21C [DANAZOL]

Experiment: The drug is tested on Bacteroides vulgatus strain: ATCC8482 for biotransformation. The drug concentrations were measured before and after a 12-h incubation by liquid-chromatography-coupled mass spectrometry (LC–MS)
Details: phocaeicola vulgatus, 2 µM

Bacterial Biotransformation, Compound metabolized:
COc1ccc2[nH]c([S+]([O-])Cc3ncc(C)c(OC)c3C)nc2c1 (stereo not given) [OMEPRAZOLE]
CCOC(=O)C1=C(C)NC(C)=C(C(=O)OC)C1c1cccc([N+](=O)[O-])c1 (stereo not given) [NITRENDIPINE]
C#C[C@]1(O)CC[C@H]2[C@@H]3CCC4=Cc5oncc5C[C@]4(C)[C@H]3CC[C@@]21C [DANAZOL]

Experiment: The drug is tested on Bifidobacterium breve strain: DSM20213 for biotransformation. The drug concentrations were measured before and after a 12-h incubation by liquid-chromatography-coupled mass spectrometry (LC–MS)
Details: 2 µM

Bacterial Biotransformation, Compound metabolized:
COc1ccc2[nH]c([S+]([O-])Cc3ncc(C)c(OC)c3C)nc2c1 (stereo not given) [OMEPRAZOLE]
CCOC(=O)C1=C(C)NC(C)=C(C(=O)OC)C1c1cccc([N+](=O)[O-])c1 (stereo not given) [NITRENDIPINE]
C#C[C@]1(O)CC[C@H]2[C@@H]3CCC4=Cc5oncc5C[C@]4(C)[C@H]3CC[C@@]21C [DANAZOL]

Details: akkermansia muciniphila, 12 h, 2 µM
Description: The drug is tested on Akkermansia muciniphila strain: ATCC BAA-835 for biotransformation. The drug concentrations were measured before and after a 12-h incubation by liquid-chromatography-coupled mass spectrometry (LC–MS)

Bacterial Biotransformation, Compound metabolized:
COc1ccc2[nH]c([S+]([O-])Cc3ncc(C)c(OC)c3C)nc2c1 (stereo not given) [OMEPRAZOLE]
CCOC(=O)C1=C(C)NC(C)=C(C(=O)OC)C1c1cccc([N+](=O)[O-])c1 (stereo not given) [NITRENDIPINE]
C#C[C@]1(O)CC[C@H]2[C@@H]3CCC4=Cc5oncc5C[C@]4(C)[C@H]3CC[C@@]21C [DANAZOL]
